Experiment in all cases: NCI-60 cell line screen, 48 h
The test system of assay [1] is T47D.
The test system of assay [2] is Hs-578T.
Assay [3] deals with PC-3.
The subject of assay [4] is TK-10.
Assay [5] deals with HOP-18.
In assay [6] the test system is HCC 2998.

Each structure is given as a SMILES string.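 Cultured in 96-well plates, cells were exposed to test compound for 48 hours across five concentrations. The concentration for 50% growth inhibition is given as GI50.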 The source made the active and inactive calls. Rule as the data show it: active = GI50 up to about 1.1 µM and inactive = higher. A value given as a limit tells only on which side of the number the result lay.

As for `O=C1CCC[C@H]2O[C@@H](COC(=O)c3ccccc3)C[C@H]2O1`, the GI50 in assay [1], in assay [2] and in assay [3] was > 100 µM (inactive) throughout.

For the compound `C1=C(c2ccccc2)SC(N2CCCCC2)S1` (stereo unspecified), in assay [4], the GI50 is > 100 µM (inactive).

Take `CN(C)C(=O)N(CCCl)N=O`: the GI50 in assay [5] and in assay [6] was > 100 µM (inactive) each time.

The values above are taken from ChEMBL document CHEMBL1201862, “PubChem BioAssay data set” (2004).
